In test [1] the target is T1, Nuclear receptor ROR-gamma (Homo sapiens, UniProt P51449).
T1 sequence (P51449 whole entry): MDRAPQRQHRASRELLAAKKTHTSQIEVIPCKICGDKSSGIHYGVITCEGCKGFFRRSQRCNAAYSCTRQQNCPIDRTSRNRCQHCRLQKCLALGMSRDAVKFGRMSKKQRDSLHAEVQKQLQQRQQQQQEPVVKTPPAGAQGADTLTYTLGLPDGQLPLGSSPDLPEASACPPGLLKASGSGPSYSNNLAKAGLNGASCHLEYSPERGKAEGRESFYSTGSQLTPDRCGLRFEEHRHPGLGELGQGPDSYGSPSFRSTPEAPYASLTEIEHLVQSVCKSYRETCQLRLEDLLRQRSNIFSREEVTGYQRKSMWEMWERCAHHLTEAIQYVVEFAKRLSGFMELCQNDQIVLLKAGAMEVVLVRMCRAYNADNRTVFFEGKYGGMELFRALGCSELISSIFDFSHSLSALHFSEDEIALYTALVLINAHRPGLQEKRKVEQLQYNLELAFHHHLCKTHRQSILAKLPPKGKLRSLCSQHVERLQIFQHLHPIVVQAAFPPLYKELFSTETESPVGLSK
Briefly: Inverse agonist activity at N-terminal 6xHis-tagged human RORc ligand binding domain (241 to 486) expressed in bacterial expression system assessed as inhibition of SRC1 co-activator peptide recruitment after 3 hrs by TR-FRET analysis. The class given is functional. (In general: In TR-FRET formats the signal depends on donor and acceptor labels being close together.)

The next test deals with HEK293. Briefly: Selectivity ratio of EC50 for GAL4-fused human FXR expressed in HEK293 cells to EC50 for GAL4-fused human RORc expressed in HEK293 cells. It counts as cell-based.

Molecules are shown by their SMILES.

As usually defined, the EC50 is the concentration that produces a half-maximal response. On to `O=C(Nc1ccc2c(c1)N(S(=O)(=O)c1ccc(F)cc1)CC2)c1c(F)cccc1F`, for which the EC50 in test [1] worked out at 86 nM. Moreover, the Ratio EC50 in the test with HEK293 was 15.

These data come from ChEMBL document CHEMBL3616373, “Identification of N-sulfonyl-tetrahydroquinolines as RORc inverse agonists” (Bioorg Med Chem Lett, 2015).
